According to article PMC10465233, “Lys-urea-Aad, Lys-urea-Cmc and Lys-urea-Cms as potential pharmacophores for the design of PSMA-targeted radioligands to reduce off-target uptake in kidneys and salivary glands” (Theranostics, 2023):

Experiments:
LNCaP tumor-bearing mice [1] = experiment: Ex vivo biodistribution in LNCaP tumor-bearing mice; design: species or system mouse
Description: (§1) Imaging, biodistribution and radioligand therapy experiments were performed following previously published procedures using male NOD-scid IL2Rg^null (NSG) or NOD.Cg-Rag1^tm1MomIl2rg^tm1Wjl/SzJ (NRG) mice [10]-[12],[14]-[15]. The experiments were conducted according to the guidelines established by the Canadian Council on Animal Care and approved by Animal Ethics Committee of the University of British Columbia. The mice were briefly sedated by inhalation of 2% isoflurane in oxygen, and implanted subcutaneously with 1×10^7 LNCaP cells behind the left shoulder. The mice were imaged or used in biodistribution studies when the tumor grew to 5-8 mm in diameter over a period of 4-5 weeks.
For biodistribution studies, the mice were injected with the radioligand (2-4 MBq) as described above. For blocking, the mice were co-injected with nonradioactive DCFPyL (0.5 mg). At predetermined time points, the mice were sedated by isoflurane inhalation and euthanized by CO2 inhalation. Blood was withdrawn by cardiac puncture, and organs/tissues of interest were collected, weighed and counted using an automatic gamma counter (Tables S4-S7).

LNCaP tumor-bearing mice [2] = experiment: Radioligand therapy study in LNCaP tumor-bearing mice; format: in vivo, mouse
Description: as §1
For radiotherapy study, tumor-bearing mice were injected with saline (the control group), [^177Lu]Lu-PSMA-617 (37 MBq) or [^177Lu]-HTK03170 (37, 18.5 and 9.3 MBq) (n = 7-8 per treatment group). Tumor size and body weight were measured twice a week from the date of injection (Day 0) until completion of the study (Day 180). Endpoint criteria were defined as > 20% weight loss, tumor volume > 1000 mm^3, or active ulceration of the tumor.

COc1ccc(CCCC(=O)NCC(=O)N[C@@H](CCCCNC(=O)CN2CCN(CC(=O)[O-])CCN(CC(=O)[O-])CCN(CC(=O)[O-])CC2)C(=O)NC[C@H]2CC[C@H](C(=O)N[C@@H](Cc3c4ccccc4cc4ccccc34)C(=O)NCCCC[C@H](NC(=O)N[C@@H](CCCC(=O)O)C(=O)O)C(=O)O)CC2)cc1.[177Lu+3] [[^177Lu]Lu-HTK03170]
Intestines uptake (LNCaP tumor-bearing mice [1]; 24 h post-injection): 0.18 ± 0.07 %ID/g | Kidneys uptake (LNCaP tumor-bearing mice [1]; 24 h post-injection): 5.80 ± 1.24 %ID/g | Lacrimal glands uptake (LNCaP tumor-bearing mice [1]; 24 h post-injection): 0.04 ± 0.03 %ID/g | Liver uptake (LNCaP tumor-bearing mice [1]; 24 h post-injection): 0.69 ± 0.27 %ID/g | Lungs uptake (LNCaP tumor-bearing mice [1]; 24 h post-injection): 0.72 ± 0.19 %ID/g | Muscle uptake (LNCaP tumor-bearing mice [1]; 24 h post-injection): 0.08 ± 0.02 %ID/g | Pancreas uptake (LNCaP tumor-bearing mice [1]; 24 h post-injection): 0.12 ± 0.03 %ID/g | Salivary glands uptake (LNCaP tumor-bearing mice [1]; 24 h post-injection): 0.28 ± 0.04 %ID/g | Spleen uptake (LNCaP tumor-bearing mice [1]; 24 h post-injection): 0.45 ± 0.10 %ID/g | Stomach uptake (LNCaP tumor-bearing mice [1]; 24 h post-injection): 0.25 ± 0.13 %ID/g | Testes uptake (LNCaP tumor-bearing mice [1]; 24 h post-injection): 0.64 ± 0.53 %ID/g | Thyroid uptake (LNCaP tumor-bearing mice [1]; 24 h post-injection): 0.37 ± 0.06 %ID/g | Tumor uptake (LNCaP tumor-bearing mice [1]; 24 h post-injection): 57.2 ± 15.3 %ID/g | Tumor:Blood uptake ratio (LNCaP tumor-bearing mice [1]; 24 h post-injection): 105 ± 57.4 | Tumor:Kidney uptake ratio (LNCaP tumor-bearing mice [1]; 24 h post-injection): 10.5 ± 4.77 | Tumor:Muscle uptake ratio (LNCaP tumor-bearing mice [1]; 24 h post-injection): 736 ± 333 | Tumor:Salivary gland uptake ratio (LNCaP tumor-bearing mice [1]; 24 h post-injection): 202 ± 49.3 | Adrenal glands uptake (LNCaP tumor-bearing mice [1]; 72 h post-injection): 0.27 ± 0.11 %ID/g | Blood uptake (LNCaP tumor-bearing mice [1]; 72 h post-injection): 0.06 ± 0.02 %ID/g | Blood:Salivary gland uptake ratio (LNCaP tumor-bearing mice [1]; 72 h post-injection): 0.57 ± 0.17 | Bone uptake (LNCaP tumor-bearing mice [1]; 72 h post-injection): 0.03 ± 0.02 %ID/g | Brain uptake (LNCaP tumor-bearing mice [1]; 72 h post-injection): 0.01 ± 0.00 %ID/g | Fat uptake (LNCaP tumor-bearing mice [1]; 72 h post-injection): 0.04 ± 0.02 %ID/g | Heart uptake (LNCaP tumor-bearing mice [1]; 72 h post-injection): 0.09 ± 0.03 %ID/g | Intestines uptake (LNCaP tumor-bearing mice [1]; 72 h post-injection): 0.14 ± 0.11 %ID/g | Kidneys uptake (LNCaP tumor-bearing mice [1]; 72 h post-injection): 2.56 ± 0.62 %ID/g | Lacrimal glands uptake (LNCaP tumor-bearing mice [1]; 72 h post-injection): 0.01 ± 0.01 %ID/g | Liver uptake (LNCaP tumor-bearing mice [1]; 72 h post-injection): 0.36 ± 0.13 %ID/g | Lungs uptake (LNCaP tumor-bearing mice [1]; 72 h post-injection): 0.18 ± 0.04 %ID/g | Muscle uptake (LNCaP tumor-bearing mice [1]; 72 h post-injection): 0.02 ± 0.01 %ID/g | Pancreas uptake (LNCaP tumor-bearing mice [1]; 72 h post-injection): 0.04 ± 0.01 %ID/g | Salivary glands uptake (LNCaP tumor-bearing mice [1]; 72 h post-injection): 0.11 ± 0.03 %ID/g | Spleen uptake (LNCaP tumor-bearing mice [1]; 72 h post-injection): 0.38 ± 0.15 %ID/g | Stomach uptake (LNCaP tumor-bearing mice [1]; 72 h post-injection): 0.28 ± 0.33 %ID/g | Testes uptake (LNCaP tumor-bearing mice [1]; 72 h post-injection): 0.24 ± 0.04 %ID/g | Thyroid uptake (LNCaP tumor-bearing mice [1]; 72 h post-injection): 0.15 ± 0.01 %ID/g | Tumor uptake (LNCaP tumor-bearing mice [1]; 72 h post-injection): 59.3 ± 16.0 %ID/g | Tumor:Blood uptake ratio (LNCaP tumor-bearing mice [1]; 72 h post-injection): 1029 ± 459 | Tumor:Kidney uptake ratio (LNCaP tumor-bearing mice [1]; 72 h post-injection): 24.0 ± 6.93 | Tumor:Muscle uptake ratio (LNCaP tumor-bearing mice [1]; 72 h post-injection): 3374 ± 1417 | Tumor:Salivary gland uptake ratio (LNCaP tumor-bearing mice [1]; 72 h post-injection): 566 ± 236 | Adrenal glands uptake (LNCaP tumor-bearing mice [1]; 120 h post-injection): 0.23 ± 0.18 %ID/g | Blood uptake (LNCaP tumor-bearing mice [1]; 120 h post-injection): 0.02 ± 0.01 %ID/g | Blood:Salivary gland uptake ratio (LNCaP tumor-bearing mice [1]; 120 h post-injection): 0.31 ± 0.06 | Bone uptake (LNCaP tumor-bearing mice [1]; 120 h post-injection): 0.02 ± 0.01 %ID/g | Fat uptake (LNCaP tumor-bearing mice [1]; 120 h post-injection): 0.04 ± 0.03 %ID/g | Heart uptake (LNCaP tumor-bearing mice [1]; 120 h post-injection): 0.05 ± 0.02 %ID/g | Intestines uptake (LNCaP tumor-bearing mice [1]; 120 h post-injection): 0.05 ± 0.06 %ID/g | Kidneys uptake (LNCaP tumor-bearing mice [1]; 120 h post-injection): 1.48 ± 0.44 %ID/g | Liver uptake (LNCaP tumor-bearing mice [1]; 120 h post-injection): 0.26 ± 0.11 %ID/g | Lungs uptake (LNCaP tumor-bearing mice [1]; 120 h post-injection): 0.07 ± 0.02 %ID/g | Muscle uptake (LNCaP tumor-bearing mice [1]; 120 h post-injection): 0.01 ± 0.01 %ID/g | Pancreas uptake (LNCaP tumor-bearing mice [1]; 120 h post-injection): 0.02 ± 0.02 %ID/g | Salivary glands uptake (LNCaP tumor-bearing mice [1]; 120 h post-injection): 0.05 ± 0.03 %ID/g | Spleen uptake (LNCaP tumor-bearing mice [1]; 120 h post-injection): 0.53 ± 0.35 %ID/g | Stomach uptake (LNCaP tumor-bearing mice [1]; 120 h post-injection): 0.08 ± 0.15 %ID/g | Testes uptake (LNCaP tumor-bearing mice [1]; 120 h post-injection): 0.16 ± 0.04 %ID/g | Thyroid uptake (LNCaP tumor-bearing mice [1]; 120 h post-injection): 0.09 ± 0.04 %ID/g | Tumor uptake (LNCaP tumor-bearing mice [1]; 120 h post-injection): 71.9 ± 19.4 %ID/g | Tumor:Blood uptake ratio (LNCaP tumor-bearing mice [1]; 120 h post-injection): 3996 ± 2182 | Tumor:Kidney uptake ratio (LNCaP tumor-bearing mice [1]; 120 h post-injection): 46.4 ± 21.3 | Tumor:Muscle uptake ratio (LNCaP tumor-bearing mice [1]; 120 h post-injection): 12778 ± 19955 | Tumor:Salivary gland uptake ratio (LNCaP tumor-bearing mice [1]; 120 h post-injection): 1167 ± 531 | Peaked tumor uptake relative to ^68Ga-labeled non-albumin-binder analog (LNCaP tumor-bearing mice [1]; mouse, in vivo): ~ 3 fold | Peaked average tumor uptake (LNCaP tumor-bearing mice [1]; peak over 1-120 h post-injection): ~ 60 %ID/g | Time of peak tumor uptake (LNCaP tumor-bearing mice [1]; post-injection, listed as 177Lu-labeled HTK03170): 4 to 24 h | Median survival (LNCaP tumor-bearing mice [2]; 9.3 MBq injected): 90 days | Median survival (LNCaP tumor-bearing mice [2]; 18.5 MBq injected): 131 days | Body weight of the treated mice (LNCaP tumor-bearing mice [2]; 37 MBq injected): continuously increasing body weight | Median survival (LNCaP tumor-bearing mice [2]; 37 MBq injected): > 180 days
